The values that follow come from patent US5232684A, “Labelled resiniferatoxin, compositions thereof, and methods for using the same” (priority 1990, dated 1993).

The structures appear in SMILES notation. Read-outs that look alike come from different tables or passages of the source.

The target of assay [1] is T1, capsaicin receptor (rat DRG membranes) (Rattus norvegicus, UniProt O35433).
T1 construct: membrane preparations from dorsal root ganglia (DRG) of female Sprague-Dawley rats; from tissue; host or cells: dorsal root ganglia of female Sprague-Dawley rats
T1 sequence (O35433 whole entry): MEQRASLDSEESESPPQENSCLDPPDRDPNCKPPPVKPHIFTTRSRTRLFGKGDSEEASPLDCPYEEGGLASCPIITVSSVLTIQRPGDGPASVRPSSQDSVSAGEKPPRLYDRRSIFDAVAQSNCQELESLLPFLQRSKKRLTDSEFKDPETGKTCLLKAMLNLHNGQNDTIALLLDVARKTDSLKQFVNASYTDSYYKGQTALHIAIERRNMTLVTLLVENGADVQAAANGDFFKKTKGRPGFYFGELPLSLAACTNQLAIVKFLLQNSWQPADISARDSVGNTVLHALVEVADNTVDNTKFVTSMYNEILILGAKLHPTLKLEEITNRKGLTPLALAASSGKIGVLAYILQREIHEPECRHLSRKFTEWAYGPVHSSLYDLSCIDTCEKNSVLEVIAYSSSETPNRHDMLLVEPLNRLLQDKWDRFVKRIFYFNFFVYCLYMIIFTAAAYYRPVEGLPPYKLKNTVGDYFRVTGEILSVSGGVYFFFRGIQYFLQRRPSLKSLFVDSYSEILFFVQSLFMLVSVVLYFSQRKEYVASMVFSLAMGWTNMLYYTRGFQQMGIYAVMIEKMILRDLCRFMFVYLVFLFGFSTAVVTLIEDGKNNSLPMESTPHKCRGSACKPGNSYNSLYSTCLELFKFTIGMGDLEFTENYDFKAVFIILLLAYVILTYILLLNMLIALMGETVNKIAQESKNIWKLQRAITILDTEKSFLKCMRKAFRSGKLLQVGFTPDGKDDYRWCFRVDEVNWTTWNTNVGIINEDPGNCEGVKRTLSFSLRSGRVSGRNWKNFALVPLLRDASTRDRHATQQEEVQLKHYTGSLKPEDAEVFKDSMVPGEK
Kind of assay: biochemical. It is filed as binding. The protocol:
(§1) Membrane preparations are obtained from the DRG and Gasser ganglia of female Sprague-Dawley rats (250-300 g); animals are sacrificed by decapitation under ether anesthesia, the ganglia removed and collected into ice-cold disrupting buffer (5 mM KCl, 5.8 mM NaCl, 2 mM MgCl2, 12 mM glucose, 137 mM sucrose, 10 mM HEPES, 5 mM DTT, 2 mM EGTA, pH 7.4). After homogenization with the aid of a Polytron tissue homogenizer, samples are filtered over surgical gauze and then washed twice with the same buffer and stored at -70° C. Particulate fractions are obtained from other rat neural tissues (cerebellum, spinal cord, preoptic region, striatum, substantia nigra) and from DRG of pigs (Mt. Airy Locker Co., Mt. Airy, MD), sheep, cows (kindly provided by Dr. Solomon, USDA, Beltsville, MD), and chickens (Truslow Farms, Chesterton, MD) by a similar procedure.
(§2) The binding assays are carried out in a volume of 250 ul, containing assay buffer (same as the disrupting buffer but omitting DTT and EGTA and including 0.75 mM CaCl2), 26-30 ug of membrane protein and 0.25 mg/ml bovine serum albumin. […] Tubes are kept on ice while the additions are made. The assay mixture is incubated for 10 min at 37° C.; it is then cooled on ice. 150 ul of the mixture is pipetted onto Whatman GF/C or GF/F glass fiber filters presoaked with 10 mg/ml bovine serum albumin in 20 mM Tris-Cl (pH 7.4) and filtered immediately. An aliquot of 50 ul of the mixture is removed to determine total radioactivity. The filters are washed with 100 ml of ice-cold 20 mM Tris-Cl, pH 7 4, containing 0.1 mg/ml bovine serum albumin, and the bound radioactivity is determined by scintillation counting. Non-specific binding is determined in the presence of 100-1000 nM non-radioactive RTX.
(§3) Binding data from saturation experiments using increasing concentrations of hot ligand are analyzed using the collection of computer programs described by McPherson (McPherson, G.A., Analysis of radioligand binding experiments: a collection of computer programs for the IBM PC, J.Pharmacol.Methods, 14 (1985) 213-228).
(§4) Scatchard and Hill transformations are performed by the Equilibrium Binding Data Analysis program referred to as EBDA. Data are further analyzed by the curvilinear regression program LIGAND (Munson, R.J. and Rodbard, D., LIGAND: a versatile computerized approach for characterization of ligand-binding systems, Anal.Biochem, 107 (1980) 220-239).
(§5) RTX binding is also analyzed in the presence of a fixed, low (60 pM or 300 pM) concentration of [^3 H]RTX and increasing concentrations of non-radioactive RTX or other ligand. […] The Ki value for RTX is calculated from the relationship Ki =ID50 -L; the Ki values for other ligands are calculated from the general form of the equation (Cheng, Y.C. and Prusoff, W.H., Relation between the inhibition constant (Ki) and the concentration of inhibitor which causes 50 per cent inhibition (I50) of an enzymatic reaction, Biochem. Pharmacol., 22 (1973) 3099-3108) Ki =IC50 /(1+L/Kd) where L=concentration of labelled ligand and Kd =dissociation constant of radioactive ligand as determined in the saturation experiments using variable concentrations of hot ligand. Comparison of the quality of fit using single and multiple site competition models is performed by the LIGAND program.
[^3 H]RTX binding is examined using membrane preparations from dorsal root ganglia (DRG) of female Sprague-Dawley rats.

Assay [2] has as its target T2, capsaicin receptor (rat Gasser ganglia) (Rattus norvegicus, UniProt O35433).
T2 construct: from tissue; host or cells: Gasser ganglia of female Sprague-Dawley rats
Kind of assay: biochemical. The class given is binding. The note with it: rat Gasser ganglia. The protocol: as §1, §2, §3, §4, §5
Gasser ganglia represents the […] homolog of the dorsal root ganglia.

In assay [3] the test system is substantia nigra. Kind of assay: [^3H]RTX binding to rat substantia nigra. The protocol:
Membrane preparations are obtained from the DRG and Gasser ganglia of female Sprague-Dawley rats (250-300 g); animals are sacrificed by decapitation under ether anesthesia, the ganglia removed and collected into ice-cold disrupting buffer (5 mM KCl, 5.8 mM NaCl, 2 mM MgCl2, 12 mM glucose, 137 mM sucrose, 10 mM HEPES, 5 mM DTT, 2 mM EGTA, pH 7.4). After homogenization with the aid of a Polytron tissue homogenizer, samples are filtered over surgical gauze and then washed twice with the same buffer and stored at -70° C. […]
The binding assays are carried out in a volume of 250 ul, containing assay buffer (same as the disrupting buffer but omitting DTT and EGTA and including 0.75 mM CaCl2), 26-30 ug of membrane protein and 0.25 mg/ml bovine serum albumin. […] An aliquot of 50 ul of the mixture is removed to determine total radioactivity. The filters are washed with 100 ml of ice-cold 20 mM Tris-Cl, pH 7 4, containing 0.1 mg/ml bovine serum albumin, and the bound radioactivity is determined by scintillation counting. Non-specific binding is determined in the presence of 100-1000 nM non-radioactive RTX. […]

T2 sequence (O35433 whole entry): as above

On to `C=C(C)[C@]12C[C@@H](C)[C@@]34O[C@](Cc5ccccc5)(O[C@@H]1[C@@H]3C=C(COC(=O)Cc1ccc(O)c(OC)c1)C[C@]1(O)C(=O)C(C)=C[C@@H]41)O2` [[^3 H]RTX, [^3 H]resiniferatoxin], for which the “Bmax (summary)” value in assay [1] (rat DRG) was determined as 160 fmol/mg. Besides, the “specific binding to the DRG membranes” value in assay [1] (rat DRG) is reported as “specific, saturable binding”. Besides, the Hill coefficient in assay [1] (rat DRG membranes) is listed as 0.96; in assay [2], 0.87. Moreover, the “specific binding of the total at the Kd” value in assay [1] (rat DRG membranes, at the Kd) is given as “approximately 50%”. Further, the “Bmax (Scatchard analysis)” value in assay [1] (rat DRG membranes, 3 separate determinations) came out at 150 fmol/mg protein. The dissociation constant (Kd) in assay [1] (rat DRG membranes, data cumulated from 3 separate determinations, read-out: Kd (Scatchard analysis)) was 0.3 nM; in assay [1] (rat DRG membranes, one site model, final parameter estimate, read-out: Kd (curvilinear analysis, LIGAND)), 0.27 nM; in assay [1] (rat DRG, read-out: Kd (summary)), 0.27 nM; in assay [2] (3 separate experiments, LIGAND), 0.13 nM. Besides, the “Bmax (curvilinear analysis, LIGAND)” value in assay [1] (rat DRG membranes, final parameter estimate) is 160 fmol/mg protein. Besides, the Bmax in assay [2] (3 separate experiments, LIGAND) was 90 fmol/mg. In assay [3], the “detection of [^3H]RTX binding” value is given as “very difficult”.
